#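 Exposure lasted 48 hours, with cells grown in 96-well plates and compounds tested at five concentrations. Abbreviation: GI50, concentration required for 50% inhibition of growth. The concentration for full growth arrest is given as TGI.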
# Assays:
# Assay in all cases: NCI anticancer screen, dose series, 48 h
# [1] = test system: 786-0 renal
# [2] = test system: A498 renal
# [3] = test system: A549 NSCLC
# [4] = test system: ACHN renal
# [5] = test system: CAKI-1 renal
# [6] = test system: CCRF-CEM leukemia
# [7] = test system: COLO 205 colon
# [8] = test system: DLD-1 colon
# [9] = test system: DMS 114 small cell lung
# [10] = test system: DMS 273 small cell lung
# [11] = test system: EKVX NSCLC
# [12] = test system: HCC-2998 colon
# [13] = test system: HCT-116 colon
# [14] = test system: HCT-15 colon
# [15] = test system: HL-60(TB) leukemia
# [16] = test system: HOP-18 NSCLC
# [17] = test system: HOP-62 NSCLC
# [18] = test system: HOP-92 NSCLC
# [19] = test system: HT29 colon
# [20] = test system: IGROV1 ovarian
# [21] = test system: K-562 leukemia
# [22] = test system: KM12 colon
# [23] = test system: KM20L2 colon
# [24] = test system: LOX IMVI melanoma
# [25] = test system: M14 melanoma
# [26] = test system: M19-MEL melanoma
# [27] = test system: MALME-3M melanoma
# [28] = test system: MOLT-4 leukemia
# [29] = test system: NCI-H226 lung
# [30] = test system: NCI-H23 lung
# [31] = test system: NCI-H460 lung
# [32] = test system: NCI-H522 lung
# [33] = test system: OVCAR-3 ovarian
# [34] = test system: OVCAR-4 ovarian
# [35] = test system: OVCAR-5 ovarian
# [36] = test system: OVCAR-8 ovarian
# [37] = test system: RPMI-8226 leukemia
# [38] = test system: RXF 393 renal
# [39] = test system: RXF-631 renal
# [40] = test system: SF-268 CNS
# [41] = test system: SF-295 CNS
# [42] = test system: SF-539 CNS
# [43] = test system: SK-MEL-2 melanoma
# [44] = test system: SK-MEL-28 melanoma
# [45] = test system: SK-MEL-5 melanoma
# [46] = test system: SK-OV-3 ovarian
# [47] = test system: SN12C renal
# [48] = test system: SNB-19 CNS
# [49] = test system: SNB-75 CNS
# [50] = test system: SNB-78 CNS
# [51] = test system: SR leukemia
# [52] = test system: SW-620 colon
# [53] = test system: TK-10 renal
# [54] = test system: U251 CNS
# [55] = test system: UACC-257 melanoma
# [56] = test system: UACC-62 melanoma
# [57] = test system: UO-31 renal
# [58] = test system: XF 498 CNS
# [59] = test system: LXFL 529 NSCLC
structure (smiles),measurement,setting,value
C[CH2][Sn]([CH2]C)([O]C(=O)c1cc(OC)c(OC)c(OC)c1)[O][Sn]([CH2]C)([CH2]C)[O]C(=O)c1cc(OC)c(OC)c(OC)c1,GI50,[1],27.4 µM
same,TGI,[1],> 59.8 µM
same,GI50,[2],25.6 µM
same,TGI,[2],43.9 µM
same,GI50,[3],> 100 µM
same,TGI,[3],> 100 µM
same,GI50,[4],21.2 µM
same,TGI,[4],40.8 µM
same,GI50,[5],15.7 µM
same,TGI,[5],29.8 µM
same,GI50,[6],7.78 µM
same,TGI,[6],33.1 µM
same,GI50,[7],20.3 µM
same,TGI,[7],43.6 µM
same,GI50,[8],27.9 µM
same,TGI,[8],> 74.1 µM
same,GI50,[9],15.1 µM
same,TGI,[9],29.1 µM
same,GI50,[10],84.5 µM
same,TGI,[10],> 100 µM
same,GI50,[11],> 53.9 µM
same,TGI,[11],> 94.8 µM
same,GI50,[12],> 76.1 µM
same,TGI,[12],> 100 µM
same,GI50,[13],68.2 µM
same,TGI,[13],> 100 µM
same,GI50,[14],43 µM
same,TGI,[14],> 79 µM
same,GI50,[15],35.1 µM
same,TGI,[15],> 100 µM
same,GI50,[16],22.2 µM
same,TGI,[16],42.4 µM
same,GI50,[17],> 100 µM
same,TGI,[17],> 100 µM
same,GI50,[18],19.6 µM
same,TGI,[18],36.9 µM
same,GI50,[19],48.1 µM
same,TGI,[19],> 100 µM
same,GI50,[20],> 100 µM
same,TGI,[20],> 100 µM
same,GI50,[21],20.9 µM
same,TGI,[21],> 64.9 µM
same,GI50,[22],> 100 µM
same,TGI,[22],> 100 µM
same,GI50,[23],64.6 µM
same,TGI,[23],> 100 µM
same,GI50,[24],18.5 µM
same,TGI,[24],33.2 µM
same,GI50,[25],32.5 µM
same,TGI,[25],> 78.9 µM
same,GI50,[26],31.3 µM
same,TGI,[26],> 100 µM
same,GI50,[27],17.3 µM
same,TGI,[27],32.2 µM
same,GI50,[28],25.8 µM
same,TGI,[28],> 85.8 µM
same,GI50,[29],27.3 µM
same,TGI,[29],57.9 µM
same,GI50,[30],16.7 µM
same,TGI,[30],36.5 µM
same,GI50,[31],> 100 µM
same,TGI,[31],> 100 µM
same,GI50,[32],1910 nM
same,TGI,[32],5.65 µM
same,GI50,[33],> 64.4 µM
same,TGI,[33],> 100 µM
same,GI50,[34],> 100 µM
same,TGI,[34],> 100 µM
same,GI50,[35],> 100 µM
same,TGI,[35],> 100 µM
same,GI50,[36],> 42.8 µM
same,TGI,[36],> 62.4 µM
same,GI50,[37],28.7 µM
same,TGI,[37],> 100 µM
same,GI50,[38],12.4 µM
same,TGI,[38],27.9 µM
same,GI50,[39],24.5 µM
same,TGI,[39],53.7 µM
same,GI50,[40],20.6 µM
same,TGI,[40],44.1 µM
same,GI50,[41],76.5 µM
same,TGI,[41],> 100 µM
same,GI50,[42],27.7 µM
same,TGI,[42],74.9 µM
same,GI50,[43],16.3 µM
same,TGI,[43],35.3 µM
same,GI50,[44],18.4 µM
same,TGI,[44],33.4 µM
same,GI50,[45],74.4 µM
same,TGI,[45],> 100 µM
same,GI50,[46],> 100 µM
same,TGI,[46],> 100 µM
same,GI50,[47],44 µM
same,TGI,[47],99.4 µM
same,GI50,[48],> 75.1 µM
same,TGI,[48],> 100 µM
same,GI50,[49],28.6 µM
same,TGI,[49],> 88.7 µM
same,GI50,[50],17 µM
same,TGI,[50],41 µM
same,GI50,[51],36.3 µM
same,TGI,[51],> 100 µM
same,GI50,[52],19.1 µM
same,TGI,[52],34.9 µM
same,GI50,[53],18.9 µM
same,TGI,[53],33.6 µM
same,GI50,[54],18.2 µM
same,TGI,[54],33.1 µM
same,GI50,[55],21.3 µM
same,TGI,[55],52 µM
same,GI50,[56],19.3 µM
same,TGI,[56],36.7 µM
same,GI50,[57],> 100 µM
same,TGI,[57],> 100 µM
same,GI50,[58],16.9 µM
same,TGI,[58],31.3 µM
COc1ccc(C=O)c(N(C)C(=O)C(C)(C)C)c1,TGI,[1],> 100 µM
same,TGI,[2],> 100 µM
same,TGI,[3],> 100 µM
same,TGI,[4],> 100 µM
same,TGI,[6],> 100 µM
same,TGI,[7],> 100 µM
same,TGI,[9],> 100 µM
same,TGI,[10],> 100 µM
same,TGI,[11],> 100 µM
same,TGI,[12],> 100 µM
same,TGI,[13],> 100 µM
same,TGI,[14],> 100 µM
same,TGI,[15],> 100 µM
same,TGI,[16],> 100 µM
same,TGI,[17],> 100 µM
same,TGI,[18],> 100 µM
same,TGI,[19],> 100 µM
same,TGI,[20],> 100 µM
same,TGI,[21],> 100 µM
same,TGI,[22],> 100 µM
same,TGI,[23],> 100 µM
same,TGI,[24],> 100 µM
same,TGI,[25],> 100 µM
same,TGI,[26],> 100 µM
same,TGI,[27],> 100 µM
same,TGI,[28],> 100 µM
same,TGI,[29],> 100 µM
same,TGI,[30],> 100 µM
same,TGI,[31],> 100 µM
same,TGI,[32],> 100 µM
same,TGI,[33],> 100 µM
same,TGI,[34],> 100 µM
same,TGI,[36],> 100 µM
same,TGI,[37],> 100 µM
same,TGI,[38],> 100 µM
same,TGI,[39],> 100 µM
same,TGI,[40],> 100 µM
same,TGI,[41],> 100 µM
same,TGI,[42],> 100 µM
same,TGI,[43],> 100 µM
same,TGI,[44],> 100 µM
same,TGI,[45],> 100 µM
same,TGI,[46],> 100 µM
same,TGI,[47],> 100 µM
same,TGI,[48],> 100 µM
same,TGI,[49],> 100 µM
same,TGI,[50],> 100 µM
same,TGI,[52],> 100 µM
same,TGI,[53],> 100 µM
same,TGI,[54],> 100 µM
same,TGI,[55],> 100 µM
same,TGI,[56],> 100 µM
same,TGI,[57],> 100 µM
same,TGI,[58],> 100 µM
O=C1/C(=C/c2ccccc2Cl)COc2ccccc21,TGI,[1],28.5 µM
same,TGI,[2],32.4 µM
same,TGI,[3],55.8 µM
same,TGI,[4],34.6 µM
same,TGI,[6],33.7 µM
same,TGI,[7],40.1 µM
same,TGI,[8],29.4 µM
same,TGI,[9],36.2 µM
same,TGI,[10],31.6 µM
same,TGI,[11],29.7 µM
same,TGI,[12],35.9 µM
same,TGI,[13],17 µM
same,TGI,[15],58 µM
same,TGI,[16],24 µM
same,TGI,[17],35 µM
same,TGI,[18],29.4 µM
same,TGI,[19],45.1 µM
same,TGI,[20],35.6 µM
same,TGI,[21],29.7 µM
same,TGI,[22],34.9 µM
same,TGI,[23],38.1 µM
same,TGI,[24],35.8 µM
same,TGI,[59],31.6 µM
same,TGI,[26],34.2 µM
same,TGI,[27],29.7 µM
same,TGI,[28],68.1 µM
same,TGI,[30],36 µM
same,TGI,[31],43.6 µM
same,TGI,[32],30.5 µM
same,TGI,[33],34.8 µM
same,TGI,[35],32.4 µM
same,TGI,[36],33.4 µM
same,TGI,[37],22 µM
same,TGI,[38],28.9 µM
same,TGI,[39],36.3 µM
same,TGI,[40],34.1 µM
same,TGI,[41],37.6 µM
same,TGI,[42],31 µM
same,TGI,[43],29 µM
same,TGI,[44],30.1 µM
same,TGI,[46],72.5 µM
same,TGI,[49],32.1 µM
same,TGI,[50],41.3 µM
same,TGI,[52],20.8 µM
same,TGI,[53],27.1 µM
same,TGI,[54],26.9 µM
same,TGI,[55],34.9 µM
same,TGI,[57],28.3 µM
same,TGI,[58],29.2 µM

# From PubChem BioAssay (NCI)
